# Measurements: ChEMBL document CHEMBL3885861, “Open TG-GATES”
# Organism: Rattus norvegicus
# Test: Open TG-GATES - Regimen: Daily Repeat
# Type: toxicity, organism-based, Sprague-Dawley
# Design: regimen Daily Repeat, gender Male, age 6 weeks
# Settings: in vivo, po, 1000 mg/kg, […], route gavage, dose level High; for KIDNEY_L / KIDNEY_R / KIDNEY_TOTAL: tissue Kidney; for LIVER: tissue Liver; for A/G / ALP / ALT / AST / BUN / CRE / Ca / Cl / DBIL / GLC / IP / K / LDH / Na / PL / RALB / TBIL / TC / TG / TP / gamma-GTP: tissue Plasma
smiles,measurement,setting,value
CN/C(=N/CCSCc1nc[nH]c1C)NC#N [CIMETIDINE],Lym,"tissue Blood, time 28 day",83.4%
same,MCH,"tissue Blood, time 28 day",19 pg
same,MCHC,"tissue Blood, time 28 day",34.4%
same,MCV,"tissue Blood, time 28 day",55.3 fL
same,Mono,"tissue Blood, time 28 day",2%
same,Neu,"tissue Blood, time 28 day",12.6%
same,PT,"tissue Blood, time 28 day",13.2 s
same,Plat,"tissue Blood, time 28 day",102.4 x10_4/uL
same,RBC,"tissue Blood, time 28 day",782 x10_4/ul
same,Ret,"tissue Blood, time 28 day",2.9%
same,WBC,"tissue Blood, time 28 day",177.7 x10_2/uL
same,KIDNEY_L,time 7 day,1.1 g
same,KIDNEY_R,time 7 day,1.1 g
same,KIDNEY_TOTAL,time 7 day,2.2 g
same,KIDNEY_L,time 14 day,1.2 g
same,KIDNEY_R,time 14 day,1.3 g
same,KIDNEY_TOTAL,time 14 day,2.5 g
same,KIDNEY_L,time 28 day,1.4 g
same,KIDNEY_R,time 28 day,1.4 g
same,KIDNEY_TOTAL,time 28 day,2.8 g
same,LIVER,time 7 day,12.9 g
same,LIVER,time 14 day,14.1 g
same,LIVER,time 28 day,16.4 g
same,A/G,time 7 day,1.4
same,ALP,time 7 day,1073 IU/L
same,ALT,time 7 day,38.4 IU/L
same,AST,time 7 day,72.2 IU/L
same,BUN,time 7 day,17 mg/dL
same,CRE,time 7 day,0.5 mg/dL
same,Ca,time 7 day,11 mg/dL
same,Cl,time 7 day,101.8 meq/L
same,DBIL,time 7 day,0.096 mg/dL
same,GLC,time 7 day,216 mg/dL
same,IP,time 7 day,7.9 mg/dL
same,K,time 7 day,4 meq/L
same,LDH,time 7 day,279.2 IU/L
same,Na,time 7 day,140.4 meq/L
same,PL,time 7 day,165.8 mg/dL
same,RALB,time 7 day,3.3 g/dL
same,TBIL,time 7 day,0.1 mg/dL
same,TC,time 7 day,79.4 mg/dL
same,TG,time 7 day,134.4 mg/dL
same,TP,time 7 day,5.6 g/dL
same,gamma-GTP,time 7 day,1.8 IU/L
same,A/G,time 14 day,1.4
same,ALP,time 14 day,808 IU/L
same,ALT,time 14 day,31.2 IU/L
same,AST,time 14 day,62.2 IU/L
same,BUN,time 14 day,19 mg/dL
same,CRE,time 14 day,0.4 mg/dL
same,Ca,time 14 day,10.7 mg/dL
same,Cl,time 14 day,101.8 meq/L
same,DBIL,time 14 day,0.1 mg/dL
same,GLC,time 14 day,213.4 mg/dL
same,IP,time 14 day,7.7 mg/dL
same,K,time 14 day,3.7 meq/L
same,LDH,time 14 day,186.8 IU/L
same,Na,time 14 day,141 meq/L
same,PL,time 14 day,165.6 mg/dL
same,RALB,time 14 day,3.4 g/dL
same,TBIL,time 14 day,0.2 mg/dL
same,TC,time 14 day,85.8 mg/dL
same,TG,time 14 day,111.2 mg/dL
same,TP,time 14 day,5.8 g/dL
same,gamma-GTP,time 14 day,1.8 IU/L
same,A/G,time 28 day,1.1
same,ALP,time 28 day,637.6 IU/L
same,ALT,time 28 day,40 IU/L
same,AST,time 28 day,66.6 IU/L
same,BUN,time 28 day,20.4 mg/dL
same,CRE,time 28 day,0.6 mg/dL
same,Ca,time 28 day,10.2 mg/dL
same,Cl,time 28 day,101 meq/L
same,DBIL,time 28 day,0.1 mg/dL
same,GLC,time 28 day,284 mg/dL
same,IP,time 28 day,8.1 mg/dL
same,K,time 28 day,3.5 meq/L
same,LDH,time 28 day,178.2 IU/L
same,Na,time 28 day,140 meq/L
same,PL,time 28 day,158.2 mg/dL
same,RALB,time 28 day,3.1 g/dL
same,TBIL,time 28 day,0.2 mg/dL
same,TC,time 28 day,77.8 mg/dL
same,TG,time 28 day,113.6 mg/dL
same,TP,time 28 day,5.9 g/dL
same,gamma-GTP,time 28 day,1.4 IU/L
